Reference: patent US20240400576A1, “NITROGEN-CONTAINING DERIVATIVES OF SALINOMYCIN, SYNTHESIS AND USES THEREOF” (Centre National de la Recherche Scientifique, priority 2021, published 2024)
Like-named read-outs stand apart in the source and are kept apart here.

Columns and labels:
[1] = tested on: HMLER CD24^low/CD44^high cells; assay: Cell viability assay (CellTiter-Blue, 72 h) in HMLER breast cancer stem cell model; type: cell-based, human; conditions: for Selectivity: ratio of the IC50 ID2 to the IC50 HMLER; for IC50: Homo sapiens
Method: (§1) The compounds have been evaluated against a model of breast cancer stem cells (HMLER) and matching non-stem cells (namely ID2 of HIMLER CD24^high/CD4^high/low), and in MCF10A cells (normal breast cell line).
(§2) Each IC50 value was determined in biological triplicate (three independent biological experiments), and each triplicate was determined in at least technical duplicate.
HMLER cells naturally repressing E-cadherin, obtained from human mammary epithelial cells infected with a retrovirus carrying hTERT, SV40, and the oncogenic allele H-rasV12, were cultured in DMEM/F12 (Gibco, 31331-028) supplemented with 10% FBS, 10 μg/mL insulin (Sigma-Aldrich, 10516), 0.5 ug/mL hydrocortisone (Sigma-Aldrich, H0888), and 0.5 ug/mL puromycin (Life Technologies, A11138-02); cells were a generous gift from Alain Puisieux (INSERM). All cells were incubated at 37° C. with 5% CO2. HMLER CD44low/high cells stained with CD24-APC and CD44-PE antibodies were sorted by FACS using an Aria Ilu (BD Biosciences) to obtain isolated CD24^low/CD44^high and CD24^high/CD44^low cell populations. HMLER CD24^low/CD44^high cells were supplemented with 10 ng/ml human epidermal growth factor (EGF, Miltenyi Biotec, 130-093-750, 100 ng/ml), while HMLER CD24^high/CD44^low cells were grown without EGF. MCF10A cells (ATCC, CRL-10317) were cultured in DMEM/F12 supplemented with 10% horse serum (Invitrogen, 16050-122), 10 μg/mL insulin, 10 ng/ml EGF, 0.5 μg/mL hydrocortisone, 100 ng/ml cholera toxin (Sigma-Aldrich, C8052), and 1× PenStrep (Invitrogen, 15070-063).
The cell viability assay was carried out by plating 1000 cells per well in 96-well plates. The cells were treated for 72 h in a range between 12 nM and 50 µM or 0.3 nM and 4 μM using serial dilutions following the manufacturer's protocol. Very briefly, the CellTiter-Blue reagent (G8081, Promega) was added to the wells after 72 h of treatment, and cells were incubated for 3 h before fluorescence intensities (λex=560/20 nm; λem=590/10 nm) were recorded using a PerkinElmer Wallac 1420 Victor2 microplate reader. The IC50 cell viability curves were plotted using the Prism 8 software for the synthesized compounds against HMLER CD24^low/CD44^high and the isogenic cell line HMLER CD24^high/CD44^low.
All derivatives were assessed for their antiproliferative activity and selectivity toward a well-established model of mesenchymal CSCs (HMLER CD24^low/CD44^high) together with their epithelial counterparts (HMLER CD24^high/CD44^low) lacking CSC properties. […] Specifically, compounds 6, 8, and 9 were identified to be particularly interesting in this context, with IC50 values of 30, 3, and 9 nM, respectively, together with their outstanding selectivities (Sls between 20.0 and 90.0).

[2] = tested on: ID2 (HMLER CD24^high/CD44^low) cells; assay: Cell viability assay (CellTiter-Blue, 72 h) in ID2 matching non-stem cells; type: cell-based; conditions: Homo sapiens, read-out: ID2 cancer cells (IC50, μM)
Method: as §1
Each IC50 value was determined in biological triplicate (three independent biological experiments), and each triplicate was determined in at least technical duplicate. […]
(§3) The cell viability assay was carried out by plating 1000 cells per well in 96-well plates. […] Very briefly, the CellTiter-Blue reagent (G8081, Promega) was added to the wells after 72 h of treatment, and cells were incubated for 3 h before fluorescence intensities (λex=560/20 nm; λem=590/10 nm) were recorded using a PerkinElmer Wallac 1420 Victor2 microplate reader. […]
All derivatives were assessed for their antiproliferative activity and selectivity toward a well-established model of mesenchymal CSCs (HMLER CD24^low/CD44^high) together with their epithelial counterparts (HMLER CD24^high/CD44^low) lacking CSC properties. […]

MCF10A cells = assay: Cell viability assay (CellTiter-Blue, 72 h) in MCF10A normal breast cell line; type: cell-based; conditions: Homo sapiens, MCF-10A, read-out: MCF10A (IC50, μM)
Method: as §1, §2
HMLER cells naturally repressing E-cadherin, obtained from human mammary epithelial cells infected with a retrovirus carrying hTERT, SV40, and the oncogenic allele H-rasV12, were cultured in DMEM/F12 (Gibco, 31331-028) supplemented with 10% FBS, 10 μg/mL insulin (Sigma-Aldrich, 10516), 0.5 ug/mL hydrocortisone (Sigma-Aldrich, H0888), and 0.5 ug/mL puromycin (Life Technologies, A11138-02); cells were a generous gift from Alain Puisieux (INSERM). All cells were incubated at 37° C. with 5% CO2. […]
as §3

[3] = 72 h, read-out: HMLER cancer cells (IC50, μM)
[4] = cell viability, 72 h treatment, CellTiter-Blue, biological triplicate, read-out: HMLER cancer cells (IC50)

CCCCN[C@H]1C=C[C@]2(O[C@H]([C@@H](CC)C(=O)[C@@H](C)[C@@H](O)[C@H](C)[C@@H]3O[C@@H]([C@@H](CC)C(=O)[O-])CC[C@@H]3C)[C@@H](C)C[C@H]2C)O[C@@]12CC[C@@](C)([C@H]1CC[C@](O)(CC)[C@H](C)O1)O2.[Na+] [Compound 3]
Selectivity [1]: 15.2

CCCN[C@H]1C=C[C@]2(O[C@H]([C@@H](CC)C(=O)[C@@H](C)[C@@H](O)[C@H](C)[C@@H]3O[C@@H]([C@@H](CC)C(=O)[O-])CC[C@@H]3C)[C@@H](C)C[C@H]2C)O[C@@]12CC[C@@](C)([C@H]1CC[C@](O)(CC)[C@H](C)O1)O2.[Na+] [Compound 2]
Selectivity [1]: 10.1

CC[C@@H](C(=O)[C@@H](C)[C@@H](O)[C@H](C)[C@@H]1O[C@@H]([C@@H](CC)C(=O)O)CC[C@@H]1C)[C@H]1O[C@]2(C=C[C@@H](O)[C@]3(CC[C@@](C)([C@H]4CC[C@](O)(CC)[C@H](C)O4)O3)O2)[C@H](C)C[C@@H]1C [Salinomycin]
IC50 [1, 3]: 1.39 ± 0.1 µM | Selectivity [1]: 3.1 | IC50 [2]: 4.36 ± 0.5 µM | IC50 (MCF10A cells): 1.13 ± 0.14 µM

CCCCN(CCCC)[C@H]1C=C[C@]2(O[C@H]([C@@H](CC)C(=O)[C@@H](C)[C@@H](O)[C@H](C)[C@@H]3O[C@@H]([C@@H](CC)C(=O)[O-])CC[C@@H]3C)[C@@H](C)C[C@H]2C)O[C@@]12CC[C@@](C)([C@H]1CC[C@](O)(CC)[C@H](C)O1)O2.[Na+] [Compound 10]
Selectivity [1]: 7.6

CC[C@@H](C(=O)[C@@H](C)[C@@H](O)[C@H](C)[C@@H]1O[C@@H]([C@@H](CC)C(=O)[O-])CC[C@@H]1C)[C@H]1O[C@]2(C=C[C@H](NCc3ccc(Cl)cc3)[C@]3(CC[C@@](C)([C@H]4CC[C@](O)(CC)[C@H](C)O4)O3)O2)[C@H](C)C[C@@H]1C.[Na+] [Compound 18]
Selectivity [1]: 11.0

CC[C@@H](C(=O)[C@@H](C)[C@@H](O)[C@H](C)[C@@H]1O[C@@H]([C@@H](CC)C(=O)[O-])CC[C@@H]1C)[C@H]1O[C@]2(C=C[C@H](NCc3ccccc3)[C@]3(CC[C@@](C)([C@H]4CC[C@](O)(CC)[C@H](C)O4)O3)O2)[C@H](C)C[C@@H]1C.[Na+] [Compound 14]
Selectivity [1]: 6.2

CCCCCN[C@H]1C=C[C@]2(O[C@H]([C@@H](CC)C(=O)[C@@H](C)[C@@H](O)[C@H](C)[C@@H]3O[C@@H]([C@@H](CC)C(=O)[O-])CC[C@@H]3C)[C@@H](C)C[C@H]2C)O[C@@]12CC[C@@](C)([C@H]1CC[C@](O)(CC)[C@H](C)O1)O2.[Na+] [Compound 5]
Selectivity [1]: 10.8

CCCCCN(CCCCC)[C@H]1C=C[C@]2(O[C@H]([C@@H](CC)C(=O)[C@@H](C)[C@@H](O)[C@H](C)[C@@H]3O[C@@H]([C@@H](CC)C(=O)[O-])CC[C@@H]3C)[C@@H](C)C[C@H]2C)O[C@@]12CC[C@@](C)([C@H]1CC[C@](O)(CC)[C@H](C)O1)O2.[Na+] [Compound 11]
Selectivity [1]: 7.7

CC[C@@H](C(=O)[C@@H](C)[C@@H](O)[C@H](C)[C@@H]1O[C@@H]([C@@H](CC)C(=O)[O-])CC[C@@H]1C)[C@H]1O[C@]2(C=C[C@H](N(CC)CC)[C@]3(CC[C@@](C)([C@H]4CC[C@](O)(CC)[C@H](C)O4)O3)O2)[C@H](C)C[C@@H]1C.[Na+] [Compound 8]
IC50 [1, 4]: 0.003 ± 0.0005 µM | Selectivity [1]: 90.0

CC[C@@H](C(=O)[C@@H](C)[C@@H](O)[C@H](C)[C@@H]1O[C@@H]([C@@H](CC)C(=O)[O-])CC[C@@H]1C)[C@H]1O[C@]2(C=C[C@H](NCC(C)C)[C@]3(CC[C@@](C)([C@H]4CC[C@](O)(CC)[C@H](C)O4)O3)O2)[C@H](C)C[C@@H]1C.[Na+] [Compound 4]
Selectivity [1]: 11.0

CCCCCCN[C@H]1C=C[C@]2(O[C@H]([C@@H](CC)C(=O)[C@@H](C)[C@@H](O)[C@H](C)[C@@H]3O[C@@H]([C@@H](CC)C(=O)[O-])CC[C@@H]3C)[C@@H](C)C[C@H]2C)O[C@@]12CC[C@@](C)([C@H]1CC[C@](O)(CC)[C@H](C)O1)O2.[Na+] [Compound 6]
IC50 [1, 4]: 0.03 ± 0.01 µM | Selectivity [1]: 24.7

CC[C@@H](C(=O)[C@@H](C)[C@@H](O)[C@H](C)[C@@H]1O[C@@H]([C@@H](CC)C(=O)[O-])CC[C@@H]1C)[C@H]1O[C@]2(C=C[C@H](NCc3ccc(C)cc3)[C@]3(CC[C@@](C)([C@H]4CC[C@](O)(CC)[C@H](C)O4)O3)O2)[C@H](C)C[C@@H]1C.[Na+] [Compound 16]
Selectivity [1]: 12.7

CC[C@@H](C(=O)[C@@H](C)[C@@H](O)[C@H](C)[C@@H]1O[C@@H]([C@@H](CC)C(=O)[O-])CC[C@@H]1C)[C@H]1O[C@]2(C=C[C@H](NCc3ccc(O)cc3)[C@]3(CC[C@@](C)([C@H]4CC[C@](O)(CC)[C@H](C)O4)O3)O2)[C@H](C)C[C@@H]1C.[Na+] [Compound 15]
Selectivity [1]: 12.4

CCCCCCCCCCCCN(CCCCCCCCCCCC)[C@H]1C=C[C@]2(O[C@H]([C@@H](CC)C(=O)[C@@H](C)[C@@H](O)[C@H](C)[C@@H]3O[C@@H]([C@@H](CC)C(=O)[O-])CC[C@@H]3C)[C@@H](C)C[C@H]2C)O[C@@]12CC[C@@](C)([C@H]1CC[C@](O)(CC)[C@H](C)O1)O2.[Na+] [Compound 13]
Selectivity [1]: 5.2

CCCN(CCC)[C@H]1C=C[C@]2(O[C@H]([C@@H](CC)C(=O)[C@@H](C)[C@@H](O)[C@H](C)[C@@H]3O[C@@H]([C@@H](CC)C(=O)[O-])CC[C@@H]3C)[C@@H](C)C[C@H]2C)O[C@@]12CC[C@@](C)([C@H]1CC[C@](O)(CC)[C@H](C)O1)O2.[Na+] [Compound 9]
IC50 [1, 4]: 0.009 ± 0.0002 µM | Selectivity [1]: 20.0

C#CCN(CC#C)[C@H]1C=C[C@]2(O[C@H]([C@@H](CC)C(=O)[C@@H](C)[C@@H](O)[C@H](C)[C@@H]3O[C@@H]([C@@H](CC)C(=O)O)CC[C@@H]3C)[C@@H](C)C[C@H]2C)O[C@@]12CC[C@@](C)([C@H]1CC[C@](O)(CC)[C@H](C)O1)O2 [Compound 19, C20-epi-dipropargyloaminosalinomycin]
IC50 [1, 3]: 2.4 µM | Selectivity [1]: 3.5 | IC50 [2]: 8.43 µM

CCCCCCN(CCCCCC)[C@H]1C=C[C@]2(O[C@H]([C@@H](CC)C(=O)[C@@H](C)[C@@H](O)[C@H](C)[C@@H]3O[C@@H]([C@@H](CC)C(=O)[O-])CC[C@@H]3C)[C@@H](C)C[C@H]2C)O[C@@]12CC[C@@](C)([C@H]1CC[C@](O)(CC)[C@H](C)O1)O2.[Na+] [Compound 12]
Selectivity [1]: 13.3

CCCCCCCCCCCCN[C@H]1C=C[C@]2(O[C@H]([C@@H](CC)C(=O)[C@@H](C)[C@@H](O)[C@H](C)[C@@H]3O[C@@H]([C@@H](CC)C(=O)[O-])CC[C@@H]3C)[C@@H](C)C[C@H]2C)O[C@@]12CC[C@@](C)([C@H]1CC[C@](O)(CC)[C@H](C)O1)O2.[Na+] [Compound 7]
Selectivity [1]: 4.1

CC[C@@H](C(=O)[C@@H](C)[C@@H](O)[C@H](C)[C@@H]1O[C@@H]([C@@H](CC)C(=O)[O-])CC[C@@H]1C)[C@H]1O[C@]2(C=C[C@H](NCc3ccc(F)cc3)[C@]3(CC[C@@](C)([C@H]4CC[C@](O)(CC)[C@H](C)O4)O3)O2)[C@H](C)C[C@@H]1C.[Na+] [Compound 17]
Selectivity [1]: 10.2

CCN[C@H]1C=C[C@]2(O[C@H]([C@@H](CC)C(=O)[C@@H](C)[C@@H](O)[C@H](C)[C@@H]3O[C@@H]([C@@H](CC)C(=O)[O-])CC[C@@H]3C)[C@@H](C)C[C@H]2C)O[C@@]12CC[C@@](C)([C@H]1CC[C@](O)(CC)[C@H](C)O1)O2.[Na+] [Compound 1]
Selectivity [1]: 6.1
